Test results: ChEMBL document CHEMBL5215003, “Evaluating the in Vitro Efficacy of Quassinoids from Eurycoma longifolia and Eurycoma harmandiana against Common Cold Human Coronavirus OC43 and SARS-CoV-2 Using In-Cell Enzyme-Linked Immunosorbent Assay” (J Nat Prod, 2022)
Where “and” joins values, the source holds several entries; their conditions need not be identical. Equal entries are not always repeated.

How the values were obtained:
[1] = system: SARS-CoV-2; assay: Antiviral activity against SARS-CoV-2 infected in African green monkey Vero cells assessed as inhibition of viral growth incubated for 2 days by ELISA analysis; type: functional, organism-based; conditions: Severe acute respiratory syndrome coronavirus 2, Vero, 48 h
[2] = Cytotoxicity against human MRC5 cells assessed as reduction in cell viability incubated for 48 hrs by PrestoBlue reagent based assay; type: toxicity
[3] = Cytotoxicity against human HepG2 cells assessed as reduction in cell viability incubated for 48 hrs by PrestoBlue reagent based assay; type: toxicity
[4] = Selectivity index, ratio of CC50 for cytotoxicity against human HCT-8 cells to IC50 for antiviral activity against HCoV-OC43 infected in human HCT-8 cells; type: toxicity, cell-based; conditions: read-out: Ratio CC50/IC50
[5] = Cytotoxicity against human HCT-8 cells assessed as redcution in cell viability incubated for 96 hrs by PrestoBlue reagent based assay; type: toxicity
[6] = Antiviral activity against HCoV-OC43 infected in human HCT-8 cells assessed as inhibition of viral growth at 10 uM incubated for 4 days by ELISA analysis relative to control; type: functional, Human coronavirus OC43; parameters: scale not given: the % may be the effect or the level left; conditions: time 4 day
[7] = Cytotoxicity against human Calu-3 cells assessed as reduction in cell viability incubated for 48 hrs by PrestoBlue reagent based assay; type: toxicity
[8] = system: HCT-8; assay: Cytotoxicity against human HCT-8 cells assessed as redcution in cell viability at 10 uM incubated for 96 hrs by PrestoBlue reagent based assay relative to control; type: toxicity; conditions: hct-8, 96 h
[9] = Selectivity index, ratio of CC50 for cytotoxicity against African green monkey Vero cells to IC50 for antiviral activity against SARS-CoV-2 infected in African green monkey Vero cells; type: toxicity, cell-based; conditions: read-out: Ratio CC50/IC50
[10] = Antiviral activity against HCoV-OC43 infected in human HCT-8 cells assessed as inhibition of viral growth incubated for 4 days by ELISA analysis; type: functional, cell-based, Human coronavirus OC43; conditions: Betacoronavirus 1, HCT-8, 96 h
[11] = Cytotoxicity against African green monkey Vero cells assessed as reduction in cell viability incubated for 48 hrs by PrestoBlue reagent based assay; type: toxicity; conditions: chlorocebus sabaeus
[12] = system: SARS-CoV-2; assay: microbe, parasite or virus in culture; type: functional, organism-based, Vero E6; conditions: Severe acute respiratory syndrome coronavirus 2, Vero C1008

| Structure (SMILES) | IC50 [1] | CC50 at 48 h [2] | CC50 at 48 h [3] | selectivity ratio [4] | CC50 at 96 h [5] | Activity [6] | CC50 at 48 h [7] | Activity [8] | selectivity ratio [9] | IC50 [10] | CC50 at 48 h [11] | IC50 [12] |
| --- | --- | --- | --- | --- | --- | --- | --- | --- | --- | --- | --- | --- |
| CC1=CC(=O)[C@@H](O)[C@]2(C)C3[C@@H](O)[C@@H]4OC(=O)[C@@H]([C@H]4C)[C@]3(C)C(=O)C[C@@H]12 (some centres undefined) | 510 nM and 0.18 µg/mL | 31.2 µM | > 100 µM | 159 | 58.9 µM | 90.27% | 41.9 µM | 71.14% | 112 | 0.37 µM | 57.1 µM |  |
| C=C1CC[C@@H]2[C@](C)(CO)[C@H](O)CC[C@@]2(C)[C@@H]1C/C=C1/C(=O)OC[C@H]1O [ANDROGRAPHOLIDE] |  |  |  |  |  | 60.4% |  | 93.47% |  |  |  |  |
| O=C(O)CCc1nccc2c1[nH]c1cc(O)ccc12 |  | > 100 µM | > 100 µM |  | 50.1 µM | <20% | > 100 µM | 108.23% |  |  | > 100 µM |  |
| COc1ccc2c3ccnc4ccc(=O)n(c2c1)c43 |  | > 100 µM | > 100 µM |  | 21.1 µM | <20% | > 100 µM | 33.49% |  |  | > 100 µM |  |
| O=c1ccc2nccc3c4ccccc4n1c23 [CANTHIN-6-ONE] |  | 91.2 µM | 85.7 µM |  | 42.4 µM | <20% | > 100 µM | 55.55% |  |  | > 100 µM |  |
| CC1=CC(=O)[C@@H](O)[C@]2(C)[C@H]3[C@]4(O)OC[C@@]35[C@@H](C[C@@H]12)OC(=O)[C@H](O)[C@@]5(O)[C@]1(CO1)[C@H]4O | 9.39 µM and 3.98 µg/mL | > 100 µM | > 100 µM | > 17 | > 100 µM | 61.73% | > 100 µM | 100.88% | > 10.7 | 5.88 µM | > 100 µM |  |
| CCC(CC)COC(=O)[C@H](C)N[P@](=O)(OC[C@H]1O[C@@](C#N)(c2ccc3c(N)ncnn23)[C@H](O)[C@@H]1O)Oc1ccccc1 [REMDESIVIR] | 22.5 µM | > 100 µM | 52.6 µM | 166 | 53.2 µM | 92.45% | > 100 µM | 96.21% | > 4.44 | 0.32 µM | > 100 µM |  |
| COc1ccc2c(c1)[nH]c1c(CCC(=O)O)nccc12 |  | > 100 µM | > 100 µM |  | 79 µM | <20% | > 100 µM | 108.23% |  |  | > 100 µM |  |
| CC1=CC(=O)[C@@H](O)[C@]2(C)[C@H]3[C@]4(O)OC[C@@]35[C@@H](C[C@@H]12)OC(=O)[C@H](O)[C@@]5(O)[C@](C)(O)[C@H]4O | 4.84 µM and 1.69 µg/mL | 54.3 µM | > 100 µM | 195 | 48.7 µM | 93.71% | > 100 µM | 70.13% | > 20.7 | 0.25 µM | > 100 µM |  |
| O=C(O)CCc1nccc2c1[nH]c1ccccc12 |  | > 100 µM | > 100 µM |  | > 100 µM | <20% | > 100 µM | 108.05% |  |  | > 100 µM |  |
| O=c1ccc2nccc3c4ccc(O[C@@H]5O[C@H](CO)[C@@H](O)[C@H](O)[C@H]5O)cc4n1c23 |  | > 100 µM | > 100 µM |  | 33.8 µM | <20% | > 100 µM | 53.28% |  |  | > 100 µM |  |
| C=C1[C@@H](O)[C@@]2(O)OC[C@]34[C@H]2[C@@]2(C)[C@H](O)C(=O)C=C(C)[C@@H]2C[C@H]3OC(=O)[C@H](O)[C@@]14O [EURYCOMANONE] | 15 µM and 6.11 µg/mL | > 100 µM | > 100 µM | 13.2 | 59.2 µM | 57.93% | 88.1 µM | 72.16% | > 6.68 | 4.47 µM | > 100 µM |  |
| COC(=O)[C@@]12OC[C@]34[C@H]([C@@H](O)[C@@H]1O)[C@@]1(C)CC(=O)C(O)=C(C)[C@@H]1C[C@H]3OC(=O)[C@H](OC(=O)CC(C)C)[C@@H]24 [BRUCEINE A] |  |  |  |  |  |  |  |  |  |  |  | 0.011 µM |
| CC1=CC(=O)[C@@H](O)[C@]2(C)[C@H]3[C@]4(O)OC[C@@]35[C@@H](C[C@@H]12)OC(=O)C[C@H]5[C@](C)(O)[C@H]4O | 430 nM and 0.16 µg/mL | 9.99 µM | 86.7 µM | 20.8 | 6.65 µM | 84.54% | 98.7 µM | 56.66% | 61 | 0.32 µM | 26.2 µM |  |
| COC(=O)[C@@]12OC[C@]34[C@H]([C@@H](O)[C@@H]1O)[C@@]1(C)CC(=O)C(O)=C(C)[C@@H]1C[C@H]3OC(=O)[C@H](OC(=O)C=C(C)C)[C@@H]24 |  |  |  |  |  |  |  |  |  |  |  | 0.049 µM |
| O=c1ccc2nccc3c4ccc(O)cc4n1c23 |  | > 100 µM | > 100 µM |  | 60.9 µM | <20% | > 100 µM | 49.3% |  |  | > 100 µM |  |
